# Legend:
# physchem = conditions: 0.01 M HCl, pH 2
# Description: Solubility of the compound in 0.01M HCl at pH 2
# Plasmodium falciparum [1] = assay: microbe, parasite or virus in culture; conditions: K1
# Description: Antimalarial activity against multidrug-resistant Plasmodium falciparum K1
# Plasmodium falciparum [2] = assay: microbe, parasite or virus in culture; conditions: NF54
# Description: Antimalarial activity against drug-sensitive Plasmodium falciparum NF54
# [3] = Hepatic extraction ratio in human liver microsomes at 1 uM up to 60 mins by LC-MS analysis; format: ADME; conditions: read-out: ERH
SMILES,solubility (physchem) [µg/mL],IC50 (Plasmodium falciparum [1]) [nM],IC50 (Plasmodium falciparum [2]) [nM],"hepatic extraction ratio at 1 h, 1 µM [3]"
CC(C)(C)OC(=O)NCc1cccc(-c2ccc3ncc(-c4ccncc4)n3n2)c1,> 100,97,95,–
CN1CCN(S(=O)(=O)c2ccc(-c3ccc4ncc(-c5ccncc5)n4n3)cc2)CC1,> 100,1250,739,–
CN(C)c1cccc(-c2ccc3ncc(-c4ccc(S(C)(=O)=O)cc4)n3n2)c1,> 100,107,117,–
CS(=O)(=O)c1ccc(-c2ccc3ncc(-c4ccncc4)n3n2)cc1,> 100,> 2850,> 2850,–
Fc1ccc(-c2ccc3ncc(-c4ccncc4)n3n2)cc1F,> 100,415,496,–
COc1ccc(-c2ccc3ncc(-c4ccncc4)n3n2)cn1,> 100,412,603,–
CS(=O)(=O)c1ccc(-c2cnc3ccc(-c4ccc(F)c(Cl)c4)nn23)cc1,> 100,152,179,–
CS(=O)(=O)c1ccc(-c2cnc3ccc(-c4cccc(C(N)=O)c4)nn23)cc1,> 100,99,102,–
c1cc(-c2ccc3ncc(-c4ccncc4)n3n2)cc(N2CCOCC2)c1,> 100,246,283,–
N[S+]([O-])c1ccc(-c2ccc3ncc(-c4ccc([S+](N)[O-])cc4)n3n2)cc1 (centres undefined),> 100,> 2330,> 2330,–
c1cc(-c2ccc3ncc(-c4ccncc4)n3n2)c2ccncc2c1,> 100,192,223,–
O=C(c1ccc(-c2ccc3ncc(-c4ccc(C(F)(F)F)cc4)n3n2)cc1)N1CCOCC1,> 100,732,763,0.59
CS(=O)(=O)c1ccc(-c2ccc3ncc(-c4ccc(S(C)(=O)=O)cc4)n3n2)cc1,> 100,753,706,–
CS(=O)(=O)Nc1cccc(-c2ccc3ncc(-c4ccc([S+](N)[O-])cc4)n3n2)c1 (centres undefined),> 100,20,18,0.42
C1=C(c2ccc3ncc(-c4ccncc4)n3n2)Cc2nonc2C1,> 100,> 3180,> 3180,–
CS(=O)(=O)c1ccc(-c2cnc3ccc(-c4ccc(C(=O)NC5CCCC5)cc4)nn23)cc1,> 100,146,154,–
CS(=O)(=O)c1ccc(-c2ccc3ncc(-c4cccnc4)n3n2)cc1,> 100,> 2850,> 2850,–
FC(F)(F)Oc1ccc(-c2ccc3ncc(-c4ccncc4)n3n2)cc1,> 100,980,1060,–
Fc1cccc(-c2ccc3ncc(-c4ccncc4)n3n2)c1,> 100,203,272,–
c1cnc2c(-c3ccc4ncc(-c5ccncc5)n4n3)cccc2c1,> 100,1670,2150,–
CS(=O)(=O)c1cccc(-c2ccc3ncc(-c4ccncc4)n3n2)c1,> 100,28,46,–
CS(=O)(=O)c1ccc(-c2ccc3ncc(-c4ccc(C(F)(F)F)cc4)n3n2)cc1,> 100,668,764,< 0.28
Clc1cccc(-c2ccc3ncc(-c4ccncc4)n3n2)c1,> 100,183,202,–
CS(=O)(=O)Nc1cccc(-c2ccc3ncc(-c4ccncc4)n3n2)c1,> 100,15,16,0.82
c1cncc(-c2ccc3ncc(-c4cccnc4)n3n2)c1,> 100,1070,1270,–
CS(=O)(=O)c1ccc(-c2cnc3ccc(-c4ccc(C(F)(F)F)nc4)nn23)cc1,> 100,633,763,–

SMILES,solubility (physchem) [µg/mL],IC50 (Plasmodium falciparum [1]) [nM],IC50 (Plasmodium falciparum [2]) [nM],"hepatic extraction ratio at 1 h, 1 µM [3]"
Fc1ccc(-c2ccc3ncc(-c4ccncc4)n3n2)cc1,> 100,138,186,–
CC(C)(C)c1cccc(-c2ccc3ncc(-c4ccncc4)n3n2)c1,> 100,122,137,–
CS(=O)(=O)c1ccc(-c2cnc3ccc(-c4cccc(C(=O)NS(=O)(=O)C5CC5)c4)nn23)cc1,> 100,11,14,–
CS(=O)(=O)c1ccc(-c2cnc3ccc(-c4cccc(C(F)(F)F)c4)nn23)cc1,> 100,55,79,–
CS(=O)(=O)c1ccc(-c2cnc3ccc(-c4ccc(C(F)(F)F)cc4)nn23)cc1,> 100,134,189,–
CC(C)(C)c1ccc(-c2ccc3ncc(-c4ccncc4)n3n2)cc1,> 100,1420,1880,–
CN(C)S(=O)(=O)c1ccc(-c2ccc3ncc(-c4ccc(S(=O)(=O)N(C)C)cc4)n3n2)cc1,> 100,> 2060,> 2060,–
CS(=O)(=O)c1ccc(-c2cnc3ccc(-c4cccc(S(=O)(=O)NCc5ccccc5)c4)nn23)cc1,> 100,3.3,3.5,–
CC(C)(C)NC(=O)c1ccc(F)c(-c2ccc3ncc(-c4ccc(S(C)(=O)=O)cc4)n3n2)c1,> 100,155,159,–
CS(=O)(=O)c1ccc(-c2cnc3ccc(-c4cccc(C(=O)N5CCCCC5)c4)nn23)cc1,> 100,7.2,6.5,–
c1cc(-c2cnc3ccc(-c4ccc(N5CCOCC5)cc4)nn23)ccn1,> 100,> 2800,> 2800,–
COc1ccc(-c2ccc3ncc(-c4ccncc4)n3n2)cc1OC,> 100,14,16,0.86
NCc1cccc(-c2ccc3ncc(-c4ccncc4)n3n2)c1,> 100,588,289,–
NCc1ccc(-c2ccc3ncc(-c4ccncc4)n3n2)cc1,> 100,491,335,–
CS(=O)(=O)Nc1cccc(-c2ccc3ncc(-c4ccc(S(C)(=O)=O)cc4)n3n2)c1,> 100,19,19,–
CS(=O)(=O)c1ccc(-c2cnc3ccc(-c4cccc(S(=O)(=O)NC5CC5)c4)nn23)cc1,> 100,0.58,0.66,–
CS(=O)(=O)Nc1cccc(-c2ccc3ncc(-c4cncnc4)n3n2)c1,> 100,76,93,0.75
CC(C)(C)OC(=O)NCc1ccc(-c2ccc3ncc(-c4ccncc4)n3n2)cc1,> 100,1610,1630,–
FC(F)(F)Oc1cccc(-c2ccc3ncc(-c4ccncc4)n3n2)c1,> 100,118,146,–
COc1ccc(-c2cnc3ccc(-c4cccnc4)nn23)cc1OC,–,23.5,25.9,0.92
CS(=O)(=O)c1ccc(-c2cnc3ccc(-c4cccc(C#N)c4)nn23)cc1,> 100,96,107,–
CS(=O)(=O)c1ccc(-c2cnc3ccc(-c4cc(C(=O)NC5CCCCC5)ccc4F)nn23)cc1,> 100,> 2030,> 2030,–
FC(F)(F)c1ccc(-c2ccc3ncc(-c4ccncc4)n3n2)cn1,> 100,873,964,–
CS(=O)(=O)c1ccc(-c2cnc3ccc(-c4ccc(C(F)(F)F)c(F)c4)nn23)cc1,> 100,315,393,–
O=S(=O)(c1ccc(-c2ccc3ncc(-c4ccncc4)n3n2)cc1)N1CCOCC1,> 100,1490,2240,–
